Data: article PMC11802874, “The hypolipidemic effect of MI-883, the combined CAR agonist/ PXR antagonist, in diet-induced hypercholesterolemia model” (Nature Communications, 2025)
“And” between values parts separate entries of the source, which are not always exact repeats. Equal entries are not always repeated.

How the values were obtained:
[1] = molecular target: T1, human PXR LBD (Homo sapiens, UniProt O75469); assay: PXR LBD assembly assay in HepG2 cells; assay type: cell-based
T1 construct: helix 1 part of the LBD of PXR (residues 132–188); helices 2-12 of the PXR-LBD (residues 189-434); expressed in transfected cells; host or cells: HepG2
Description: A human PXR LBD assembly assay (Fig. 1k) was done with expression plasmids encoding fusion protein of GAL4-DNA binding domain (DBD) and helix 1 part of the LBD of PXR (residues 132–188) and fusion protein of VP16 activation domain (AD) and helices 2-12 of the PXR-LBD (residues 189-434), respectively, which have all been described previously. Metridia luciferase expression plasmid pMetLuc2control was obtained by Takara-Clontech (Mountain View, CA, USA). Transient batch transfection of HepG2 cells was done in 96-well plates using Jet-PEI transfection reagent (Polyplus, Illkirch, France), as described previously. The following amounts of plasmid DNA per well were used: 0.24 µg pGL4-G5 and 0.03 µg each of expression plasmids encoding GAL4-DBD/PXR(132-188) and VP16-AD/PXR(189-434). All transfections included 0.01 µg pMetLuc2control per well for normalization of firefly luciferase reporter activities. After overnight incubation with the transfection mixtures, cells were treated with chemicals in a volume of 100 µl of cell culture medium. […] Firefly luciferase activity was measured in 10 µl of cell lysates, and Metridia luciferase activity was analyzed in 10 µl of medium supernatant, both as described before. Results were normalized by dividing firefly luciferase activity by Metridia luciferase activity measured from the same well.

[2] = molecular target: T2, PXR/NCOA2 (Homo sapiens, UniProt O75469); assay: Mammalian two-hybrid PXR/coactivator NCOA2 recruitment, HepG2; assay type: cell-based; set-up: key: firefly/Metridia luciferase activity ratio (normalized)
T2 construct: PXR-LBD (residues 108–434); expressed in transfected cells; host or cells: HepG2
Procedure: (§1) The GAL4-dependent pGL4-G5, harboring a pentamer of GAL4 binding sites in front of the E1b promoter was described before.
(§2) Transient batch transfection of HepG2 cells was done as described above. […] All transfections included 0.01 µg pMetLuc2control per well for normalization of firefly luciferase reporter activities. After overnight incubation with the transfection mixtures, cells were treated with chemicals in a volume of 100 µl of cell culture medium. […] Firefly luciferase activity was measured in 10 µl of cell lysates, and Metridia luciferase activity was analyzed in 10 µl of medium supernatant, both as described before. Results were normalized by dividing firefly luciferase activity by Metridia luciferase activity measured from the same well. Measurements of samples were repeated several times (n ≥ 3).

[3] = molecular target: T3, PXR/NCOR2 (Homo sapiens, UniProt O75469); assay: Mammalian two-hybrid PXR/corepressor NCOR2 release, HepG2; assay type: cell-based; set-up: key: firefly/Metridia luciferase activity ratio (normalized)
T3 construct: PXR-LBD (residues 108–434); expressed in transfected cells; host or cells: HepG2
Procedure: as §1, §2

[4] = system: humanized PXR-CAR-CYP3A4/3A7 mice, liver; assay: RT-qPCR and Western blotting of liver samples (HFD study); assay type: in vivo, mouse
Procedure: RT-qPCR expression studies were performed on liver samples from eleven humanized PXR-CAR-CYP3A4/3A7 mice that were fed a high-fat diet and treated with 5 mg/kg MI-883 three times per week for four weeks. Specific TaqMan probes were used, following the protocol described in Supplementary Table S3.
Western blotting experiments have been performed in BioRad instruments with BioRad precasted gels and reagents. Antibodies are listed in Supplementary Table S4. Densitometry has been done using ChemiDoc™ MP Imaging System and software (BioRad, Hercules, USA). Data are presented as relative protein expression to control samples. For protein expression quantification, areas in histograms have been calculated and related to a reference protein.

[5] = single agent: RIF (10 µM), MI-883 10 μM
[6] = FigS13, individual animals, relative to control
[7] = HFD study, Western blotting, form not given
[8] = hPXR/hCAR/hCYP3A4/7 mice, relative to control, individual animals

T3 sequence (O75469 108-434): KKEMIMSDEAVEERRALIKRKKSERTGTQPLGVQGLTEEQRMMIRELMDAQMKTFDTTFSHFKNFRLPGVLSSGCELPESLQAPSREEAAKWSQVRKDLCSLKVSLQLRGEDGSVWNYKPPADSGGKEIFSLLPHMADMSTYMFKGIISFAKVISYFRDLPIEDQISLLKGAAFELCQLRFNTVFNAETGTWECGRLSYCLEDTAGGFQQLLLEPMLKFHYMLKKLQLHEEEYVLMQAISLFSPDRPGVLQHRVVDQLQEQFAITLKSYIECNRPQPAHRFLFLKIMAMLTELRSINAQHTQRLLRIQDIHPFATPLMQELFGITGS
T3 sequence (P19793 whole entry partner, the tested form may be a part): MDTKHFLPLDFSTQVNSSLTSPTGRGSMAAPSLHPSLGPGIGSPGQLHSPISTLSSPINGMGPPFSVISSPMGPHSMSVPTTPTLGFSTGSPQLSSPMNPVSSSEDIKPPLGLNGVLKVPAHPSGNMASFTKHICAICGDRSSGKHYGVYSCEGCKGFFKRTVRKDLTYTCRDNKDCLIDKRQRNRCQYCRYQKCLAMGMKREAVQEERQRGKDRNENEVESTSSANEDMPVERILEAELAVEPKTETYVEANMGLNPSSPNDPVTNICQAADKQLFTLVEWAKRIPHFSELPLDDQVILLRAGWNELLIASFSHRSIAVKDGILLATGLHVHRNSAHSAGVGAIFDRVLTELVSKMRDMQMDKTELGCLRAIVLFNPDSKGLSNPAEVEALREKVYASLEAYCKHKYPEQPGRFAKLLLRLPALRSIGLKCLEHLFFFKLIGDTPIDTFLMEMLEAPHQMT
T2 sequence (O75469 108-434): as the sequence (O75469 108-434) above
T1 sequence (O75469 132-188): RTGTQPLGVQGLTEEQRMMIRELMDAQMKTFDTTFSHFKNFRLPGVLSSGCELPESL
T1 sequence (O75469 189-434): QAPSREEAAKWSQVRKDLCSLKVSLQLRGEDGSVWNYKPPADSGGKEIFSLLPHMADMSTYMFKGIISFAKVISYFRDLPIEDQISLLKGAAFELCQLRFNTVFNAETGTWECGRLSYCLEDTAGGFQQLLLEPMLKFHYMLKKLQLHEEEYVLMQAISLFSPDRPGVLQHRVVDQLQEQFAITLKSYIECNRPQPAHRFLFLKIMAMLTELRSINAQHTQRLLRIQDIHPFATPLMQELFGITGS

SMILES: NC(=O)c1cc(Cn2cc(-c3c(-c4ccc(Cl)cc4)nc4cc(F)ccn34)nn2)ccc1Cl [MI-883, 2-chloro-5-((4-(2-(4-chlorophenyl)-7-fluoroimidazo[1,2-a]pyridin-3-yl)-1H-1,2,3-triazol-1-yl)methyl)benzamide]
- PXR LBD assembly [1]: stimulates
- PXR/TIF2 (NCOA2) two-hybrid activity, replicates ([2]; MI-883 30 μM): 1.15 and 1.65 and 1.3 and 1.26 and 0.52
- PXR/TIF2 (NCOA2) two-hybrid activity, replicates [2, 5]: 0.75 and 0.81 and 0.95 and 0.79 and 0.57
- PXR/NCOR2 (SMRT) two-hybrid activity, replicates ([3]; MI-883 30 μM): 0.575 and 0.629 and 0.672 and 0.562 and 0.437
- PXR/NCOR2 (SMRT) two-hybrid activity, replicates [3, 5]: 0.59 and 0.547 and 0.723 and 0.544 and 0.703
- Acaca mRNA (RT-qPCR) [4, 6]: 0.62 and 1.24 and 0.73 and 1.27 and 0.85 and 0.6 and 0.7 and 0.51 and 0.8 and 0.28 and 0.34
- Cd36 mRNA (RT-qPCR) [4, 6]: 0.88 and 1.19 and 0.76 and 1.31 and 0.8 and 0.72 and 1.01 and 0.19 and 1.11
- Cpt1a mRNA (RT-qPCR) [4, 6]: 1.05 and 0.92 and 2.34 and 0.85 and 1.37 and 0.77 and 1.27 and 0.96 and 1.08 and 0.81 and 0.88
- FaSN mRNA (RT-qPCR) [4, 6]: 0.51 and 0.56 and 0.8 and 0.98 and 0.62 and 0.37 and 0.54 and 0.38 and 0.73 and 0.14 and 0.71
- Plin2 mRNA (RT-qPCR) [4, 6]: 0.41 and 0.63 and 0.49 and 0.9 and 0.62 and 0.85 and 0.58 and 0.57 and 1 and 0.16 and 0.74
- Pnpla3 mRNA (RT-qPCR) [4, 6]: 1.72 and 1.4 and 0.48 and 1.37 and 0.96 and 0.84 and 0.35 and 0.25 and 1.49 and 0.03 and 1.94
- Ppara mRNA (RT-qPCR) [4, 6]: 0.97 and 0.71 and 1.1 and 0.18 and 1.04
- Scd1 mRNA (RT-qPCR) [4, 6]: 0.36 and 0.67 and 0.33 and 0.76 and 0.51 and 0.6 and 0.47 and 0.34 and 0.52 and 0.56
- liver Scd1 mRNA, RT-qPCR (n = 11) ([4]; HFD study, P = 0.0036): significantly downregulated
- liver Fasn and Plin2 mRNA, RT-qPCR ([4]; HFD study, P = 0.007 and P = 0.018): significantly downregulated
- liver Cyp7a1 and Cyp8b1 proteins ([4]; HFD study, Western blotting): significant upregulation
- liver Insig1 prot, individual samples ([4]; HFD study, Western blotting): 3.8 and 3.3 and 3.1 and 2.9
- liver Srebp1 120 kDa protein or mature nuclear fragments (mSrebp1) ([4]; HFD study, Western blotting): did not see any significant decrease
- liver Mrp4 prot, individual samples ([4]; HFD study, Western blotting, relative to control): 1.89 and 1.6214 and 2.1487 and 1.571
- liver Srebp1/2 protein, lower block, first control/MI-883 pair [4, 7]: 1.8 and 1.6 and 1.7 and 1.1
- liver Srebp1/2 protein, lower block, second control/MI-883 pair [4, 7]: 0.6 and 0.7 and 0.5
- liver Srebp1/2 protein, upper block, second control/MI-883 pair [4, 7]: 1.7 and 1.5 and 1.1 and 1.2
- liver mature nuclear mSrepb2 protein ([4]; HFD study, effect is not significant): may decrease
- liver Cyp7a1 mRNA, RT-qPCR, individual animals ([4]; HFD study, relative to control): 0.7586 and 0.4023 and 0.5977 and 0.2759 and 0.5402 and 0.954 and 0.4943 and 0.9885 and 0.5172
- liver Insig1 mRNA, RT-qPCR, individual animals ([4]; HFD study, relative to control): 1.68 and 2.22 and 0.72 and 0.43 and 1.13 and 1.06 and 1.18 and 2.34 and 1.52 and 1.27 and 0.68
- liver Mrp4 mRNA, RT-qPCR, individual animals ([4]; HFD study, relative to control): 4.091 and 6.648 and 4.182 and 4.443 and 4.045 and 2.545 and 4.341 and 10.0455 and 5.239 and 3.409
- liver Srebf1 mRNA, RT-qPCR, individual animals ([4]; HFD study, relative to control): 0.7619 and 0.9619 and 0.5619 and 0.6 and 1.105 and 0.7714 and 0.7143 and 0.8857 and 0.819 and 0.4571
- liver Sult2a1 mRNA, RT-qPCR, individual animals ([4]; HFD study, relative to control): 4.077 and 3.288 and 1.404 and 2.538 and 0.8846 and 1.615
- liver Ugt1a1 mRNA, RT-qPCR, individual animals ([4]; HFD study, relative to control): 1.852 and 2.477 and 1.455 and 1.284 and 1 and 1.58 and 1.148 and 2.057 and 2 and 2.17 and 0.8977
- liver Ugt2b34 mRNA, RT-qPCR, individual animals ([4]; HFD study, relative to control): 1.412 and 2.106 and 2.063 and 1.118 and 1.379 and 0.7926
- liver murine Gadd45b mRNA and Meg3 lncRNA ([4]; PXR-CAR-CYP3A4/3A7 mice (Fig. 7a)): statistically significant upregulation
- Bcl2 expression (Fig. 7a) [4, 8]: 0.87 and 0.95 and 0.93 and 1.25 and 1.35 and 0.29
- Cdkn1a expression (Fig. 7a) [4, 8]: 1.39 and 0.41 and 0.43 and 0.27 and 1.57 and 0.35
- Foxm1 expression (Fig. 7a) [4, 8]: 2.03 and 1.26 and 1.41 and 1.28 and 1.37 and 0.42
- Gadd45b expression (Fig. 7a) [4, 8]: 2.07 and 7.83 and 4.06 and 7.82 and 5.69 and 2.44
- Mcl1 expression (Fig. 7a) [4, 8]: 0.58 and 1.09 and 0.6 and 1.16 and 0.84 and 0.26
- Meg3 expression (Fig. 7a) [4, 8]: 2.24 and 7.88 and 3.05 and 3.57 and 2.39
- Mki67 expression (Fig. 7a) [4, 8]: 1.7 and 1.18 and 1.43 and 1.11 and 1.31 and 0.71
- Pcna expression (Fig. 7a) [4, 8]: 0.78 and 1.24 and 0.66 and 0.89 and 0.57 and 0.36
